Measurements from the supplement of paper PMC11451515.

System: SEM cells
Test: cell viability relative to DMSO control; higher = less cytotoxic
Conditions: 48 h
Procedure, shortened: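 Viability is a per-plate percentage relative to DMSO wells, with cell-free wells as background. CellTiter-Glo One luminescence was read after 48 h at 37°C on 1536-well plates (5 μl) of NOMO1 or SEM (500 cells/well) or P12-Ichikawa (1000 cells/well) leukemia cells. The cells had been adapted for at least four passages in each medium and pin-dosed with library compounds in DMSO from 47 μM to 0.79 nM in 11 threefold steps.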

[1] = HPLM + 10% dialyzed FBS, 0.000781 µM
[2] = HPLM + 10% dialyzed FBS, 0.00234 µM
[3] = HPLM + 10% dialyzed FBS, 0.00702 µM
[4] = HPLM + 10% dialyzed FBS, 0.0211 µM
[5] = HPLM + 10% dialyzed FBS, 0.0632 µM
[6] = HPLM + 10% dialyzed FBS, 0.19 µM
[7] = HPLM + 10% dialyzed FBS, 0.569 µM
[8] = HPLM + 10% dialyzed FBS, 1.71 µM
[9] = HPLM + 10% dialyzed FBS, 5.12 µM
[10] = HPLM + 10% dialyzed FBS, 15.4 µM
[11] = HPLM + 10% dialyzed FBS, 46.1 µM
[12] = RPMI 5 mM glucose + 10% FBS, 0.000781 µM
[13] = RPMI 5 mM glucose + 10% FBS, 0.00234 µM
[14] = RPMI 5 mM glucose + 10% FBS, 0.00702 µM
[15] = RPMI 5 mM glucose + 10% FBS, 0.0211 µM
[16] = RPMI 5 mM glucose + 10% FBS, 0.0632 µM
[17] = RPMI 5 mM glucose + 10% FBS, 0.19 µM
[18] = RPMI 5 mM glucose + 10% FBS, 0.569 µM
[19] = RPMI 5 mM glucose + 10% FBS, 1.71 µM
[20] = RPMI 5 mM glucose + 10% FBS, 5.12 µM
[21] = RPMI 5 mM glucose + 10% FBS, 15.4 µM
[22] = RPMI 5 mM glucose + 10% FBS, 46.1 µM
[23] = RPMI 5 mM glucose + 10% dialyzed FBS, 0.000781 µM
[24] = RPMI 5 mM glucose + 10% dialyzed FBS, 0.00234 µM
[25] = RPMI 5 mM glucose + 10% dialyzed FBS, 0.00702 µM
[26] = RPMI 5 mM glucose + 10% dialyzed FBS, 0.0211 µM
[27] = RPMI 5 mM glucose + 10% dialyzed FBS, 0.0632 µM
[28] = RPMI 5 mM glucose + 10% dialyzed FBS, 0.19 µM
[29] = RPMI 5 mM glucose + 10% dialyzed FBS, 0.569 µM
[30] = RPMI 5 mM glucose + 10% dialyzed FBS, 1.71 µM
[31] = RPMI 5 mM glucose + 10% dialyzed FBS, 5.12 µM
[32] = RPMI 5 mM glucose + 10% dialyzed FBS, 15.4 µM
[33] = RPMI 5 mM glucose + 10% dialyzed FBS, 46.1 µM

Row | SMILES | cell viability [1] [%] | cell viability [2] [%] | cell viability [3] [%] | cell viability [4] [%] | cell viability [5] [%] | cell viability [6] [%] | cell viability [7] [%] | cell viability [8] [%] | cell viability [9] [%] | cell viability [10] [%] | cell viability [11] [%] | cell viability [12] [%] | cell viability [13] [%] | cell viability [14] [%] | cell viability [15] [%] | cell viability [16] [%] | cell viability [17] [%] | cell viability [18] [%] | cell viability [19] [%] | cell viability [20] [%] | cell viability [21] [%] | cell viability [22] [%] | cell viability [23] [%] | cell viability [24] [%] | cell viability [25] [%] | cell viability [26] [%] | cell viability [27] [%] | cell viability [28] [%] | cell viability [29] [%] | cell viability [30] [%] | cell viability [31] [%] | cell viability [32] [%] | cell viability [33] [%]
1 | N#Cc1ccc(NC(=O)Nc2ccccc2Br)c2nn[nH]c12 | 81.8 | 93.9 | 110 | 103 | 107 | 108 | 123 | 126 | 125 | 109 | 112 | 80.7 | 111 | 97.9 | 91.4 | 113 | 103 | 101 | 101 | 107 | 104 | 81.7 | 93.1 | 103 | 108 | 99 | 116 | 129 | 125 | 124 | 121 | 114 | 107
2 | CCOCC(O)COc1ccc(NC(=O)CC[S+](C)C)cc1 (stereo not drawn) | 88.2 | 77.9 | 93.7 | 90.5 | 94.2 | 93.5 | 106 | 91.9 | 109 | 107 | 84.8 | 77.9 | 92.1 | 85.9 | 80.9 | 85.2 | 103 | 95.3 | 76.7 | 106 | 104 | 72.2 | 76.2 | 88.3 | 82.6 | 73.5 | 91.2 | 96.8 | 95.9 | 102 | 107 | 112 | 72.1
3 | CN1CCC(CC1)=C2C3=C(C=CC=C3)\C=C/C4=C2C=CC=C4 | 102 | 109 | 120 | 121 | 125 | 126 | 123 | 112 | 131 | 105 | 103 | 118 | 121 | 126 | 115 | 125 | 135 | 139 | 138 | 130 | 113 | 101 | 101 | 109 | 117 | 117 | 133 | 134 | 130 | 104 | 119 | 112 | 86.7
4 | NC(CO)C(=O)NNCc1ccc(O)c(O)c1O (stereo not drawn) | 93.3 | 116 | 105 | 89.9 | 106 | 99.8 | 102 | 103 | 104 | 89.4 | 84.2 | 99.8 | 104 | 101 | 84.7 | 101 | 105 | 98.3 | 96.1 | 72.9 | 99 | 12.6 | 103 | 105 | 104 | 89.2 | 95 | 88.5 | 100 | 91.4 | 90.5 | 87.8 | 18
5 | C[C@H](NCc1ccc(OCc2cccc(F)c2)cc1)C(N)=O | 81 | 102 | 102 | 107 | 97.6 | 76.7 | 58 | 42.3 | 29.6 | 30.7 | 9.65 | 102 | 99.9 | 106 | 100 | 106 | 92.1 | 60.1 | 44.1 | 26 | 22.1 | 10.9 | 78.5 | 99.8 | 102 | 85.1 | 102 | 67.1 | 47.6 | 27.9 | 21 | 20.6 | 13.2
6 | Cn1cnc([N+](=O)[O-])c1Sc1ncnc2nc[nH]c12 | 83.9 | 90.7 | 99.3 | 88 | 101 | 100 | 95.7 | 83 | 103 | 24.4 | 20.8 | 87.3 | 86.8 | 93.4 | 108 | 88.2 | 92.1 | 100 | 43.5 | 23.8 | 24.9 | 15.4 | 90.3 | 82.8 | 84.6 | 71.8 | 88.9 | 89.1 | 77 | 32.1 | 28.7 | 20.7 | 14.3
7 | Cc1ccc(/C=N/NC(=O)c2ccccc2Oc2ccccc2)o1 | 102 | 101 | 87 | 85.8 | 109 | 96.9 | 89.6 | 94.9 | 93.5 | 91.7 | 90.9 | 107 | 98.2 | 93 | 106 | 102 | 104 | 99.4 | 104 | 93.6 | 98.6 | 90.5 | 147 | 102 | 91.7 | 102 | 91.8 | 101 | 97.5 | 97.4 | 66.5 | 92.5 | 73.4
8 | C[N]1C=C(C=N1)C2=CC=C3N=CC\4=C(N(C(=O)\C=C4)C5=CC6=C(CCN6C(=O)C=C)C=C5)C3=C2 | 118 | 114 | 96.1 | 120 | 93.9 | 110 | 102 | 82.1 | 27.6 | 4.07 | 4.13 | 104 | 105 | 90.4 | 110 | 117 | 111 | 118 | 80.5 | 26.6 | 2.7 | 3.13 | – | – | – | – | – | – | – | – | – | – | –
9 | N=C(N)NC(=N)N1CCOCC1 | 97.7 | 97.2 | 112 | 98 | 99.1 | 105 | 109 | 103 | 86.4 | 98.9 | 112 | 94 | 94.5 | 99.7 | 96.2 | 105 | 104 | 113 | 93.4 | 71.2 | 100 | 106 | 104 | 114 | 107 | 104 | 106 | 100 | 111 | 93.6 | 114 | 92.3 | 110
10 | NC\1=N\C(=O)N(\C=C1F)[C@H]2C[C@H](O)[C@@H](CO)O2 | 110 | 123 | 116 | 89.9 | 63.4 | 30.8 | 47.2 | 43.6 | 45.5 | 34.7 | 39.7 | – | – | – | – | – | – | – | – | – | – | – | 125 | 128 | 93 | 53.8 | 38.7 | 21.8 | 35.4 | 40.1 | 28 | 30.1 | 28.5
11 | Oc1c(Cl)cc(Cl)c2cccnc12 | 112 | 77 | 121 | 104 | 109 | 120 | 122 | 108 | 104 | 66.3 | 12.3 | 108 | 102 | 94 | 103 | 102 | 113 | 120 | 91.4 | 112 | 71 | 7.14 | 107 | 93.8 | 85.1 | 97.2 | 97.5 | 96.3 | 101 | 116 | 99.1 | 59.8 | 7.1
12 | CC(C)c1c(C(=O)Nc2ccccc2)c(-c2ccccc2)c(-c2ccc(F)cc2)n1CC[C@@H](O)C[C@@H](O)CC(=O)[O-] | 108 | 117 | 103 | 113 | 112 | 102 | 93.2 | 104 | 99.8 | 75 | 69.9 | 81.9 | 92.3 | 110 | 120 | 103 | 86.3 | 98.3 | 97 | 88.6 | 70 | 45.1 | 99.6 | 109 | 104 | 106 | 93.4 | 68.5 | 104 | 97.8 | 93.3 | 80 | 60.9
13 | Oc1ccc2ccccc2c1SSc1c(O)ccc2ccccc12 | 95 | 102 | 109 | 116 | 106 | 85.8 | 99.5 | 96.2 | 108 | 97.3 | 9.05 | 104 | 109 | 95 | 102 | 111 | 79.1 | 103 | 99.4 | 104 | 78.9 | 30 | 95 | 99.6 | 84.3 | 113 | 92.5 | 66.9 | 93.1 | 104 | 87.6 | 74.7 | 20.1
14 | CCN(CC)CCCC(C)Nc1nc(C)cc(Nc2ccc3nc(C)cc(N)c3c2)n1 (stereo not drawn) | 100 | 104 | 96.1 | 100 | 101 | 115 | 106 | 114 | 110 | 99.7 | 88.2 | 75.2 | 80.4 | 75.3 | 72.2 | 69.6 | 65.5 | 75.5 | 75.6 | 63.9 | 66.1 | 72 | 115 | 97.1 | 113 | 107 | 100 | 118 | 98.9 | 106 | 96.4 | 99.6 | 86.4
15 | CC(C)(Sc1ccc(CCN(CCCCC2CCCCC2)C(=O)NC2CCCCC2)cc1)C(=O)O | 98.9 | 105 | 110 | 102 | 106 | 113 | 111 | 96.3 | 94.4 | 93.9 | 98.9 | 96.3 | 108 | 117 | 114 | 102 | 105 | 105 | 98.8 | 107 | 89.6 | 75.9 | 103 | 107 | 102 | 111 | 117 | 101 | 114 | 96.9 | 101 | 113 | 82.1
